Experimental data as given in ChEMBL document CHEMBL1909294, “Translating clinical findings into knowledge in drug safety evaluation--drug induced liver injury prediction system (DILIps)” (PLoS Comput Biol, 2011).

Legend:
[1] = system: Hepatotoxicity;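 as to HepSE cholecystitis: Cholecystitis-related hepatic side effect score drawn from the DILIps (drug-induced liver injury prediction) training data set; call rule not given here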;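 as to HepSE cirrhosis: cirrhosis hepatic side effect score taken from the DILIps (drug-induced liver injury prediction) training set; call rule not given here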; as to HepSE hepatic failure: call rule not given here;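 as to HepSE hepatitis: Hepatitis-related hepatic side effect score taken from the training data of DILIps, a prediction system for drug-induced liver injury; call rule not given here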;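 as to HepSE hepatomegaly: hepatic side effect score for hepatomegaly, taken from the training set of the DILIps drug-induced liver injury prediction system; call rule not given here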;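 as to HepSE jaundice: Jaundice-related hepatic side-effect score drawn from the training data of the DILIps (drug-induced liver injury prediction system); call rule not given here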; as to HepSE liver disease: call rule not given here
[2] = system: Hepatotoxicity; remark: listed apart in the source;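 as to HepSE cholecystitis: Cholecystitis-related hepatic side effect score drawn from the DILIps (drug-induced liver injury prediction) training data set; call rule not given here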;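 as to HepSE cirrhosis: cirrhosis hepatic side effect score taken from the DILIps (drug-induced liver injury prediction) training set; call rule not given here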; as to HepSE hepatic failure: call rule not given here;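 as to HepSE hepatitis: Hepatitis-related hepatic side effect score taken from the training data of DILIps, a prediction system for drug-induced liver injury; call rule not given here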;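 as to HepSE hepatomegaly: hepatic side effect score for hepatomegaly, taken from the training set of the DILIps drug-induced liver injury prediction system; call rule not given here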;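 as to HepSE jaundice: Jaundice-related hepatic side-effect score drawn from the training data of the DILIps (drug-induced liver injury prediction system); call rule not given here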; as to HepSE liver disease: call rule not given here
[3] = system: Hepatotoxicity; remark: listed apart in the source;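 as to HepSE cholecystitis: Cholecystitis-related hepatic side effect score drawn from the DILIps (drug-induced liver injury prediction) training data set; call rule not given here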;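 as to HepSE cirrhosis: cirrhosis hepatic side effect score taken from the DILIps (drug-induced liver injury prediction) training set; call rule not given here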; as to HepSE hepatic failure: call rule not given here;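 as to HepSE hepatitis: Hepatitis-related hepatic side effect score taken from the training data of DILIps, a prediction system for drug-induced liver injury; call rule not given here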;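 as to HepSE hepatomegaly: hepatic side effect score for hepatomegaly, taken from the training set of the DILIps drug-induced liver injury prediction system; call rule not given here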;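 as to HepSE jaundice: Jaundice-related hepatic side-effect score drawn from the training data of the DILIps (drug-induced liver injury prediction system); call rule not given here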; as to HepSE liver disease: call rule not given here
[4] = system: Hepatotoxicity; remark: listed apart in the source;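 as to HepSE cholecystitis: Cholecystitis-related hepatic side effect score drawn from the DILIps (drug-induced liver injury prediction) training data set; call rule not given here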;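 as to HepSE cirrhosis: cirrhosis hepatic side effect score taken from the DILIps (drug-induced liver injury prediction) training set; call rule not given here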; as to HepSE hepatic failure: call rule not given here;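 as to HepSE hepatitis: Hepatitis-related hepatic side effect score taken from the training data of DILIps, a prediction system for drug-induced liver injury; call rule not given here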;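 as to HepSE hepatomegaly: hepatic side effect score for hepatomegaly, taken from the training set of the DILIps drug-induced liver injury prediction system; call rule not given here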; as to HepSE liver disease: call rule not given here
[5] = system: Hepatotoxicity; remark: listed apart in the source; as to HepSE hepatic failure: call rule not given here; as to HepSE liver disease: call rule not given here
[6] = system: Hepatotoxicity; remark: listed apart in the source; as to HepSE hepatic failure: call rule not given here; as to HepSE liver disease: call rule not given here
[7] = system: Hepatotoxicity; remark: listed apart in the source
[8] = system: Hepatotoxicity; remark: listed apart in the source
[9] = system: Hepatotoxicity; remark: listed apart in the source
[10] = system: Hepatotoxicity; remark: listed apart in the source
[11] = system: Hepatotoxicity; remark: listed apart in the source
[12] = system: Hepatotoxicity; remark: listed apart in the source
[13] = system: Hepatotoxicity; remark: listed apart in the source
[14] = system: Hepatotoxicity; remark: listed apart in the source

Row | Compound | HepSE_cirrhosis [1] | HepSE_liver disease [2] | HepSE_cholecystitis [3] | HepSE_hepatitis [4] | HepSE_hepatic necrosis [5] | HepSE_hepatic failure [6] | HepSE_hepatomegaly [7] | HepSE_bilirubinemia [8] | HepSE_jaundice [9] | HepSE_Combined Scores [10] | HepSE_elevated liver function tests [11] | HepSE_liver function tests abnormal [12] | HepSE_liver fatty [13] | HepSE_cholelithiasis [14] | other results
1 | O=C1C(CC[S+]([O-])c2ccccc2)C(=O)N(c2ccccc2)N1c1ccccc1 (stereo not drawn) [SULFINPYRAZONE] | 0 | 0 | 0 | 0 | 0 | 0 | 0 | 0 | 0 | 0 | 0 | 0 | 0 | 0 | –
2 | Cc1noc(NS(=O)(=O)c2ccc(N)cc2)c1C [SULFISOXAZOLE] | 0 | 0 | 0 | 1 | 0 | 0 | 0 | 0 | 1 | 2 | 0 | 0 | 0 | 0 | –
3 | CCN(CC)CCNC(=O)c1c(C)[nH]c(/C=C2\C(=O)Nc3ccc(F)cc32)c1C [SUNITINIB] | 0 | 0 | 0 | 0 | 0 | 1 | 0 | 0 | 1 | 2 | 0 | 0 | 0 | 0 | –
4 | CC(C(=O)O)c1ccc(C(=O)c2cccs2)cc1 (stereo not drawn) [SUPROFEN] | 0 | 0 | 0 | 0 | 0 | 0 | 0 | 0 | 0 | 0 | 0 | 0 | 0 | 0 | –
5 | C[N+](C)(C)CCOC(=O)CCC(=O)OCC[N+](C)(C)C [SUXAMETHONIUM] | 0 | 0 | 0 | 0 | 0 | 0 | 0 | 0 | 0 | 0 | 0 | 0 | 0 | 0 | –
6 | Nc1c2c(nc3ccccc13)CCCC2 [TACRINE] | – | – | – | – | – | – | – | – | – | – | – | – | – | – | HepSE_cirrhosis ([1]; Liver): 0; HepSE_liver disease ([2]; Liver): 0; HepSE_cholecystitis ([3]; Liver): 1; HepSE_hepatitis ([4]; Liver): 0; HepSE_hepatic necrosis ([5]; Liver): 0; HepSE_hepatic failure ([6]; Liver): 0; HepSE_hepatomegaly ([7]; Liver): 0; HepSE_bilirubinemia ([8]; Liver): 0; HepSE_jaundice ([9]; Liver): 0; HepSE_Combined Scores ([10]; Liver): 2; HepSE_elevated liver function tests ([11]; Liver): 0; HepSE_liver function tests abnormal ([12]; Liver): 0; HepSE_liver fatty ([13]; Liver): 0; HepSE_cholelithiasis ([14]; Liver): 1
7 | C=CC[C@@H]1/C=C(\C)C[C@H](C)C[C@H](OC)[C@H]2O[C@@](O)(C(=O)C(=O)N3CCCC[C@H]3C(=O)O[C@H](/C(C)=C/[C@@H]3CC[C@@H](O)[C@H](OC)C3)[C@H](C)[C@@H](O)CC1=O)[C@H](C)C[C@@H]2OC [TACROLIMUS ANHYDROUS] | 0 | 1 | 0 | 1 | 1 | 0 | 0 | 1 | 1 | 7 | 0 | 1 | 1 | 0 | –
8 | CCOc1ccccc1OCCN[C@H](C)Cc1ccc(OC)c(S(N)(=O)=O)c1 [TAMSULOSIN] | 0 | 0 | 0 | 0 | 0 | 0 | 0 | 0 | 0 | 0 | 0 | 0 | 0 | 0 | –
9 | CCOC(=O)c1ccc(C#Cc2ccc3c(c2)C(C)(C)CCS3)nc1 [TAZAROTENE] | 0 | 0 | 0 | 0 | 0 | 0 | 0 | 0 | 0 | 0 | 0 | 0 | 0 | 0 | –
10 | CCCCCNC(=N)N/N=C/c1c[nH]c2ccc(OC)cc12 [TEGASEROD] | 0 | 0 | 1 | 1 | 0 | 0 | 0 | 1 | 0 | 4 | 0 | 0 | 0 | 1 | –
11 | CC[C@H]1OC(=O)[C@H](C)C(=O)[C@H](C)[C@@H](O[C@@H]2O[C@H](C)C[C@H](N(C)C)[C@H]2O)[C@](C)(OC)C[C@@H](C)C(=O)[C@H](C)[C@H]2N(CCCCn3cnc(-c4cccnc4)c3)C(=O)O[C@]12C [TELITHROMYCIN] | – | – | – | – | – | – | – | – | – | – | – | – | – | – | HepSE_cirrhosis ([1]; Liver): 0; HepSE_liver disease ([2]; Liver): 0; HepSE_cholecystitis ([3]; Liver): 0; HepSE_hepatitis ([4]; Liver): 1; HepSE_hepatic necrosis ([5]; Liver): 1; HepSE_hepatic failure ([6]; Liver): 1; HepSE_hepatomegaly ([7]; Liver): 0; HepSE_bilirubinemia ([8]; Liver): 0; HepSE_jaundice ([9]; Liver): 1; HepSE_Combined Scores ([10]; Liver): 5; HepSE_elevated liver function tests ([11]; Liver): 0; HepSE_liver function tests abnormal ([12]; Liver): 1; HepSE_liver fatty ([13]; Liver): 0; HepSE_cholelithiasis ([14]; Liver): 0
12 | Cn1nnc2c(C(N)=O)ncn2c1=O [TEMOZOLOMIDE] | 0 | 0 | 0 | 0 | 0 | 0 | 0 | 0 | 0 | 0 | 0 | 0 | 0 | 0 | –
13 | COc1cc([C@@H]2c3cc4c(cc3[C@@H](O[C@@H]3O[C@@H]5CO[C@@H](c6cccs6)O[C@H]5[C@H](O)[C@H]3O)[C@H]3COC(=O)[C@H]23)OCO4)cc(OC)c1O [TENIPOSIDE] | 0 | 0 | 0 | 0 | 0 | 0 | 0 | 0 | 0 | 0 | 0 | 0 | 0 | 0 | –
14 | C[C@H](Cn1cnc2c(N)ncnc21)OCP(=O)(O)O [TENOFOVIR ANHYDROUS] | 0 | 0 | 0 | 1 | 0 | 0 | 0 | 0 | 0 | 2 | 0 | 0 | 1 | 0 | –
15 | COc1cc2nc(N3CCN(C(=O)C4CCCO4)CC3)nc(N)c2cc1OC (stereo not drawn) [TERAZOSIN] | 0 | 0 | 0 | 0 | 0 | 0 | 0 | 0 | 1 | 1 | 0 | 0 | 0 | 0 | –
16 | CN(C/C=C/C#CC(C)(C)C)Cc1cccc2ccccc12 [TERBINAFINE] | 0 | 1 | 0 | 0 | 0 | 1 | 0 | 0 | 1 | 3 | 0 | 0 | 0 | 0 | –
17 | CC(C)(C)NCC(O)c1cc(O)cc(O)c1 (stereo not drawn) [TERBUTALINE] | 0 | 0 | 0 | 0 | 0 | 0 | 0 | 0 | 0 | 0 | 0 | 0 | 0 | 0 | –
